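Tested at 5 concentrations; 48 h exposure; 96-well plates; endpoints linearly interpolated, else capped at highest concentration. TGI marks complete inhibition of growth.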
How the values were obtained:
Experiment in all cases: growth of human tumour cells (NCI), 48 h
EKVX NSCLC = test system: EKVX NSCLC
UACC-257 melanoma = test system: UACC-257 melanoma
OVCAR-8 ovarian = test system: OVCAR-8 ovarian
HOP-92 NSCLC = test system: HOP-92 NSCLC
SK-MEL-2 melanoma = test system: SK-MEL-2 melanoma
HL-60(TB) leukemia = test system: HL-60(TB) leukemia
CCRF-CEM leukemia = test system: CCRF-CEM leukemia
NCI-H460 lung = test system: NCI-H460 lung
TK-10 renal = test system: TK-10 renal
SF-268 CNS = test system: SF-268 CNS

SMILES	TGI (EKVX NSCLC)	TGI (UACC-257 melanoma)	TGI (OVCAR-8 ovarian)	TGI (HOP-92 NSCLC)	TGI (SK-MEL-2 melanoma)	TGI (HL-60(TB) leukemia)	TGI (CCRF-CEM leukemia)	TGI (NCI-H460 lung)	TGI (TK-10 renal)	TGI (SF-268 CNS)
Cc1cc(=O)oc2c1cc(OCC(=O)OCCN1CCCCC1)c1occ(C)c12	> 100 µM	> 100 µM	> 100 µM	> 100 µM	> 100 µM	> 100 µM	> 100 µM	> 100 µM	> 100 µM	
CCOC(=O)NC	> 100 µM	> 100 µM		> 100 µM	> 100 µM	> 100 µM	> 100 µM	> 100 µM	> 100 µM	> 100 µM
Cn1c(Sc2ccc(-c3cccnc3)n2C)ccc1-c1cccnc1	> 56.8 µM	29.1 µM	41.2 µM	28.1 µM	30.1 µM	5.78 µM	4.53 µM	31.1 µM	32.4 µM	23.7 µM
O=C1c2ccccc2C(=O)c2c1ccc(C(=O)O)c2-c1ccc2ccccc2c1	81 µM	> 100 µM	> 100 µM		48.5 µM	61.2 µM	52.4 µM	> 100 µM	> 100 µM	98.1 µM
CCCCCCCCCCCCCCCCOCC(COP(=O)([O-])OCC[n+]1ccc(N(C)C)cc1)OCC (configuration not stated)			38.2 µM	32.6 µM	27 µM	3.79 µM	24.9 µM	25.4 µM	28.9 µM	25.7 µM
COc1cc2c(cc1Oc1ccc(OC)c3c1CC1c4c(cc(OC)c(OC)c4-3)CCN1C)CC1c3c(cc(OC)c(OC)c3-2)CCN1C (configuration not stated)	10.8 µM	3.21 µM	16.3 µM	12.4 µM	3.79 µM	2.72 µM	10.2 µM	3.88 µM		14.8 µM
NC(=O)Nc1cc(O)ccc1N=Nc1ccc(S(=O)(=O)Nc2ccccn2)cc1	> 100 µM	> 100 µM	> 100 µM	> 100 µM	> 100 µM	> 100 µM	> 100 µM	> 100 µM	> 100 µM	> 100 µM
COc1cc(C)c2c(=O)c3c(oc2c1)C(=O)c1c(O)c(OC)cc(O)c1C3=O	3.25 µM	3.1 µM	0.551 µM	1.26 µM	1.88 µM	2.57 µM	5.12 µM	3.97 µM		> 50 µM
COc1ccc(CC2c3cc(OC)c(OC)c(OC)c3CC[N+]2(C)C)cc1Oc1ccc(CC2c3cc4c(c(OC)c3CCN2C)OCO4)cc1 (configuration not stated)	> 100 µM	> 100 µM	> 100 µM	> 100 µM	> 100 µM	89.7 µM		> 100 µM	> 100 µM	> 100 µM
